Patent US20120071493A1, “SUBSTITUTED 8-SULFONYL-2,3,4,5-TETRAHYDRO-1H-GAMMA-CARBOLINES, LIGANDS AND PHARMACEUTICAL COMPOSITION; METHOD FOR THE PRODUCTION AND USE OF SAME” (priority 2009, published 2012)

Assays:
male mice of BALB/c line [1] = assay: Passive Avoidance of mice in the Shuttle Chamber, memory disturbed by Scopolamine; format: in vivo; settings: 0.2 mg/kg, 30 minutes before training; retention after 24 hours
Description: 18.1.1. […] Experiments were carried out in aged male mice of BALB/c line weighing 20-25 grams or male rats of Vistar line weighing 200-250 g. A shuttle chamber (Ugo Basile, Italy) consisted of two sections was used. […] The sections were connected through a hole which could be overlapped by vertical door. The floor of the dark section was made of transverse metal bars on which DC current impulses could be fed. On the first day of experiment 30 minutes before training mice were injected […] with Scopolamine which causes memory disturbance. The animals of trial group were additionally injected with a compound of the general formula 1, for example, compound 1.1.1(4).HCl or 1.2.1(3).HCl, in doses of 0.2 mg/kg. The animals of control group were injected with physiological solution. Each group consisted of 8 animals. The animals were placed in the light section, and latent period of the first entry into the dark chamber was registered. Then the vertical door was closed and the animal was punished by 0.6 mA DC current for 3 seconds. After that the animal was taken back to its home cage. In 24 hours the same animal was placed again in the light section of the shuttle chamber and latent period of its first entry into the dark section, the total time of its stay in the light section and the number of entries into dark section was registered. Each monitoring lasted for 5 minutes. […]

male mice of BALB/c line [2] = assay: Mice Behavior in the Elevated Plus Maze test; format: in vivo; settings: 0.05 mg/kg and 0.2 mg/kg intraperitoneally
Description: The experiments were carried out in aged male mice of BALB/c line weighing about 25 g. Animals were housed 5-7 per cage with water and food available. None of animals was acquainted with experimental set-up before. Each experimental group included 8 animals.
The procedure used was described earlier by Lister (Lister R. G. The use of a plus-maze to measure anxiety in the mouse. Psychopharmacology, 1987; 92:180-185). Plexiglass set-up consisted of two opened arms of 30×5 cm size and two closed arms of 30×5×15 cm size was used. Side arms were closed with transparent plexiglass and were connected with central zone via platform of 5×5 cm size. Opened arms, central platform and floor were made of black plexiglass. The set-up was mounted on a metallic base which was placed 38.5 cm above floor level.
Animals were injected intraperitoneally with placebo, Buspirone (5 mg/kg, 30 minutes before training), Lorazepam (0.05 mg/kg, 60 minutes before training) or with one of the compounds of the general formula 1, for example, compound 1.1.1(4).HCl or compound 1.2.1(3).HCl in doses 0.05 mg/kg and 0.2 mg/kg. Buspirone and Lorazepam were introduced in maximal effective dose, at which side sedative effect and general decrease of exploratory activity (number of arm entries during the test) were not observed yet.
Each mouse was placed in maze center with its head towards the opened arm. Over a period of 5 minutes the sequence and duration of arm entries were registered by means of computer program. Criterion for entry is location of all animal's paws inside the arm at the same time. Index of preference was calculated as ratio of the time spent by animal in opened arms as well as the number of entries into opened arms to the total time spent by it in opened and closed arms or, respectively, to the whole number of entries to arms of both types. The number of defecations left by mouse was regarded as additional parameter characterizing anxiety state.

mice [3] = assay: Tail suspension test; format: in vivo; settings: injected for 4 days in doses of 0.05 mg/kg; 6 minutes test
Description: Mice behavior in tail suspension test. Mice were suspended by tail with scotch tape on holder over horizontal surface at a height of about 40 cm, and for 6 minutes the total duration of complete immobility episodes which is considered to be a measure of depressively-like state was registered. Automated computerized detection of motion with videosystem and Any-maze programm were used in test. […] This testifies the decreasing of time of a depressively-like state.

[4] = system: animals as in example 18.1.1; assay: Passive avoidance, memory disturbed by MK-801; format: in vivo, mice; settings: 0.2 mg/kg and 1 mg/kg intraperitoneally before training; MK-801 0.1 mg/kg
mice [5] = assay: Mice Training in the Morris Water maze, Scopolamine memory impairment; format: in vivo; settings: intraperitoneally 35-40 minutes before training, with Scopolamine
Description: Mice Training in the Morris Water maze. A round pool filled with water at 20-22° C. was used. There was a round ceramic platform of 14 cm height in the pool. Animals's (mice) behavior was registered with an automated computer video system in combination with software package of movement analysis Any-maze (Stoelting Co., CIIIA). Selection of mice suitable for training was carried out before the experiments. For this purpose the platform was placed 1 cm above the water level and an animal was put on the platform for 20 seconds. Then the mouse was sunk into the water on the opposite side of the pool, allowed to find the platform and climb it for 60 seconds, where it was left for 20 seconds. After that the mouse was repeatedly immersed into water on the opposite side of the pool and allowed to find the platform. If it failed in finding the platform within 60 seconds the experimentator helped it to find the platform and climb it. If the mice couldn't find the platform itself in two consecutive attempts it was excluded from the experiment. During the next two days the platform was placed 0.5 cm lower the water level. Every day the mice were given four attempts for finding the platform within 60 seconds. The time interval between the attempts was 20 seconds, during which the mice stayed on the platform. Every day before the first attempt the mice was placed on the platform for 20 seconds. […]

[6] = system: 31 receptors (alpha-adrenoceptors, dopamine, histamine, imidazoline, sigma, norepinephrine and serotonin receptors); assay: Displacement of radio-labelled ligands from 31 receptors (MDS Pharma Services); format: binding
Description: The interaction was estimated by the displacement of radio-labeled […] from their complex with the corresponding receptors by compound 1.1.1(4).HCl at its concentration of 10 mkM. […] The interaction was estimated by the displacement of radio-labeled […] from their complex with the corresponding receptors by compound 1.2.1(3).HCl at its concentration of 1 mkM. […] All radio-labelled experiments were carried out by MDS Pharma Services firm ([…].com/Services, Taipei, Taiwan) according to their protocols. Estimation of the results obtained is indicative of wide range of pharmacological activity of γ-carbolines of the general formula 1 towards alpha-adrenoceptors, dopamine receptors, histamine receptors, imidazoline receptors, sigma receptors, norepinephrine receptors and serotonin receptors.

Row | Structure (SMILES) | effect on amnesia caused by Scopolamine, passive avoidance (male mice of BALB/c line [1]) | anxiolytic effect in elevated plus maze (male mice of BALB/c line [2]) | duration of mice complete immobility (mice [3]) | effect on amnesia caused by MK-801, passive avoidance [4] | effect on memory impairment caused by Scopolamine, Morris water maze (mice [5]) | interaction with 31 receptors (displacement of radio-labelled ligands) ([6]; FIG. 2, compound at 1 mkM per figure legend) | % of radio-labelled ligands displacement ([6]; at 13 of 31 receptors, compound at 10 mkM, FIG. 1) [%] | number of receptors the compound actively interacts with (displacement >60%) ([6]; of 31 receptors, compound at 10 mkM, FIG. 1)
1 | CN1CCc2[nH]c3ccc(S(=O)(=O)Nc4cccc(F)c4)cc3c2C1.Cl [1.2.1(3)•HCl, 2-methyl-2,3,4,5-tetrahydro-1H-γ-carboline-8-sulfonic acid 3-fluorophenyl amide hydrochloride] | decrease amnesia | well-marked anxiolytic effect | decreased significantly | analogous effect | decreasing of memory impairment | Analogous results | – | –
2 | CN1CCc2c(c3cc(S(=O)(=O)c4ccccc4)ccc3n2C)C1.Cl [1.1.1(4)•HCl, 2,5-dimethyl-8-(phenylsulfonyl)-2,3,4,5-tetrahydro-1H-γ-carboline hydrochloride] | decrease amnesia | well-marked anxiolytic effect | decreased significantly | decrease amnesia caused by MK-801 markedly | decreasing of memory impairment | – | > 60 | 13
